Results on 21 compounds are retold here after patent US20240174671A1, “New 2,3-Dihydro-1H-pyrrolo[3,2-b]pyridine Derivatives as Sigma Ligands” (ACONDICIONAMIENTO TARRASENSE, priority 2021, published 2024).

Where a name gives a salt, the structure may show the parent alone. Where only a bound is given, the exact number is not on record here.

One experiment concerns the target T1, human σ1 receptor (Homo sapiens, UniProt Q99720).
T1 construct: expressed in transfected cells; host or cells: HEK-293
The experiment is described as follows: Human σ1 receptor radioligand assay ([3H](+)-pentazocine). The conditions noted are these: transfected HEK-293 membranes, 5 nM [3H](+)-pentazocine, 37° C., 120 minutes; read-out: Binding σ-[…] (binding to σ1-receptor expressed as Ki). The class given is binding. In a few lines: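 Binding used [3H](+)-pentazocine, 120 min at 37° C, with non-specific binding defined by 10 μM haloperidol. Bound radioligand was collected by filtration, washed with ice-cold 10 mM Tris-HCl pH 7.4 and counted by scintillation.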

In another experiment the target is T2, human σ2/TMEM97 receptor (Homo sapiens, UniProt Q5BJF2).
T2 construct: expressed in transfected cells; host or cells: HEK-293
T2 sequence (Q5BJF2 whole entry): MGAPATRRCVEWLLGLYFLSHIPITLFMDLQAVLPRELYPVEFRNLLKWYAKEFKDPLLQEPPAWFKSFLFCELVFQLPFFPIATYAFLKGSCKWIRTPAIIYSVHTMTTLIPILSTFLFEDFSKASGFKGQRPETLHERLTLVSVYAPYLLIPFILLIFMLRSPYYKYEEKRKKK
The experiment in a line: Binding assay to human σ2/TMEM97 receptor ([3H]-DTG). The conditions noted are these: transfected HEK-293 membranes, 10 nM [3H]-DTG, 25° C., 120 minutes; read-out: Binding σ-[…] (binding to σ2-receptor expressed as Ki). In a few lines: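 Membranes from transfected HEK-293 cells incubated with 10 nM [3H]-DTG in 50 mM Tris-HCl pH 8.0, 120 min at 25 °C; non-specific binding defined with 10 μM haloperidol. Bound radioactivity counted after filtration; compounds tested as % inhibition at 1 or 10 μM or at five concentrations for Ki.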

T1 sequence (Q99720 whole entry): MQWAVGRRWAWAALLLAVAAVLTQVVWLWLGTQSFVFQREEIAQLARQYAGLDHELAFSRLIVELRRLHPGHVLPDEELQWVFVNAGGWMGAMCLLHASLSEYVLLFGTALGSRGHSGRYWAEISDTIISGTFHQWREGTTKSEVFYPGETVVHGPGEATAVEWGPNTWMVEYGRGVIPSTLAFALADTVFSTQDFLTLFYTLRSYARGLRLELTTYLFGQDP

With `CC(C)CCN(C)[C@H]1CCCCN(C(=O)N2CCc3ncccc32)C1` [Example 122, (S)-(2,3-dihydro-1H-pyrrolo[3,2-b]pyridin-1-yl)(3-(isopentyl(methyl)amino)azepan-1-yl)methanone], the Ki (in general, a measure of affinity in units of concentration, obtained from inhibition or displacement) at human σ1 receptor was less than 0.1 µM; at human σ2/TMEM97 receptor, 0.1 to 0.5 µM.

As to `Cc1ccc2c(n1)C(C)(C)CN2C(=O)C1CCN(Cc2ccccc2)CC1` [Example 123, (1-benzylpiperidin-4-yl)(3,3,5-trimethyl-2,3-dihydro-1H-pyrrolo[3,2-b]pyridin-1-yl)methanone], the Ki was less than 0.1 µM on human σ1 receptor and 0.5 to 1 µM at human σ2/TMEM97 receptor.

`Cc1ccc2c(n1)C(C)(C)CN2C(=O)[C@@H]1CN(Cc2ccccc2)C[C@H]1C` [Example 124, ((3S,4S)-1-benzyl-4-methylpyrrolidin-3-yl)(3,3,5-trimethyl-2,3-dihydro-1H-pyrrolo[3,2-b]pyridin-1-yl)methanone]: the Ki is less than 0.1 µM at human σ1 receptor and greater than 1 µM on human σ2/TMEM97 receptor.

As to `Cc1ccc2c(n1)C(C)(C)CN2C(=O)[C@H]1CN(Cc2ccccc2)C[C@@H]1C` [Example 125, ((3R,4R)-1-benzyl-4-methylpyrrolidin-3-yl)(3,3,5-trimethyl-2,3-dihydro-1H-pyrrolo[3,2-b]pyridin-1-yl)methanone], the values for the Ki at human σ1 receptor and at human σ2/TMEM97 receptor were less than 0.1 µM and 0.1 to 0.5 µM, respectively.

With `Cc1ccc2c(n1)C(C)(C)CN2C(=O)[C@H]1CC[C@@H](N(C)Cc2ccccc2)CC1` [Example 126, ((1s,4s)-4-(benzyl(methyl)amino)cyclohexyl)(3,3,5-trimethyl-2,3-dihydro-1H-pyrrolo[3,2-b]pyridin-1-yl)methanone], the Ki on human σ1 receptor and at human σ2/TMEM97 receptor was less than 0.1 µM throughout.

Consider `CN(Cc1ccccc1)[C@H]1CC[C@@H](C(=O)N2CC(C)(C)c3ncccc32)CC1` [Example 127, ((1s,4s)-4-(benzyl(methyl)amino)cyclohexyl)(3,3-dimethyl-2,3-dihydro-1H-pyrrolo[3,2-b]pyridin-1-yl)methanone], for which the Ki at human σ1 receptor and on human σ2/TMEM97 receptor was less than 0.1 µM each time.

Take `CC1(C)CN(C(=O)[C@H]2CC[C@H](NCc3ccccc3)CC2)c2cccnc21` [Example 128, ((1r,4r)-4-(benzylamino)cyclohexyl)(3,3-dimethyl-2,3-dihydro-1H-pyrrolo[3,2-b]pyridin-1-yl)methanone dihydrochloride]: the Ki on human σ1 receptor is less than 0.1 µM; at human σ2/TMEM97 receptor it was 0.1 to 0.5 µM.

With `Cc1ccc2c(n1)C(C)(C)CN2C(=O)CC1CCN(Cc2ccccc2)CC1` [Example 130, 2-(1-benzylpiperidin-4-yl)-1-(3,3,5-trimethyl-2,3-dihydro-1H-pyrrolo[3,2-b]pyridin-1-yl)ethanone], the Ki was less than 0.1 µM on human σ1 receptor and 0.1 to 0.5 µM at human σ2/TMEM97 receptor.

With `Cc1ccc2c(n1)C(C)(C)CN2C(=O)C1CN(Cc2ccccc2)C1` [Example 131, (1-benzylazetidin-3-yl)(3,3,5-trimethyl-2,3-dihydro-1H-pyrrolo[3,2-b]pyridin-1-yl)methanone], the figures for the Ki at human σ1 receptor and on human σ2/TMEM97 receptor were less than 0.1 µM and greater than 1 µM, respectively.

Turning to `CC1(C)CN(C(=O)C2CN(Cc3ccccc3)C2)c2cccnc21` [Example 132, (1-benzylazetidin-3-yl)(3,3-dimethyl-2,3-dihydro-1H-pyrrolo[3,2-b]pyridin-1-yl)methanone], the Ki on human σ1 receptor was less than 0.1 µM; on human σ2/TMEM97 receptor, 0.1 to 0.5 µM.

For `Cc1ccc2c(n1)C(C)(C)CN2C(=O)C1CN(Cc2ccc(F)cc2)C1` [Example 133, (1-(4-fluorobenzyl)azetidin-3-yl)(3,3,5-trimethyl-2,3-dihydro-1H-pyrrolo[3,2-b]pyridin-1-yl)methanone], the Ki at human σ1 receptor was less than 0.1 µM; at human σ2/TMEM97 receptor it was greater than 1 µM.

As for `Cc1ccc2c(n1)C(C)(C)CN2C(=O)[C@H]1C[C@H](NCc2ccccc2)C1` [Example 134, ((1r,3r)-3-(benzylamino)cyclobutyl)(3,3,5-trimethyl-2,3-dihydro-1H-pyrrolo[3,2-b]pyridin-1-yl)methanone], the Ki at human σ1 receptor is 0.1 to 0.5 µM; at human σ2/TMEM97 receptor, greater than 1 µM.

As for `Cc1ccc2c(n1)C(C)(C)CN2C(=O)C1CN(Cc2cccc(F)c2)C1` [Example 135, (1-(3-fluorobenzyl)azetidin-3-yl)(3,3,5-trimethyl-2,3-dihydro-1H-pyrrolo[3,2-b]pyridin-1-yl)methanone], the Ki was less than 0.1 µM at human σ1 receptor and 0.5 to 1 µM on human σ2/TMEM97 receptor.

As for `Cc1ccc2c(n1)C(C)(C)CN2C(=O)[C@H]1C[C@@H](NCc2ccccc2)C1` [Example 136, ((1s,3s)-3-(benzylamino)cyclobutyl)(3,3,5-trimethyl-2,3-dihydro-1H-pyrrolo[3,2-b]pyridin-1-yl)methanone], the Ki on human σ1 receptor and on human σ2/TMEM97 receptor was 0.1 to 0.5 µM throughout.

For `Cc1ccc2c(n1)C(C)(C)CN2C(=O)[C@H]1C[C@H](N(C)Cc2ccccc2)C1` [Example 137, ((1r,3r)-3-(Benzyl(methyl)amino)cyclobutyl)(3,3,5-trimethyl-2,3-dihydro-1H-pyrrolo[3,2-b]pyridin-1-yl)methanone], the Ki on human σ1 receptor is less than 0.1 µM; on human σ2/TMEM97 receptor, 0.1 to 0.5 µM.

As to `CN(Cc1ccccc1)[C@H]1CC[C@H](C(=O)N2CC(C)(C)c3ncccc32)CC1` [Example 138, ((1r,4r)-4-(benzyl(methyl)amino)cyclohexyl)(3,3-dimethyl-2,3-dihydro-1H-pyrrolo[3,2-b]pyridin-1-yl)methanone], the Ki at human σ1 receptor and on human σ2/TMEM97 receptor was less than 0.1 µM in each case.

With `Cc1ccc2c(n1)C(C)(C)CN2C(=O)[C@H]1C[C@@H](N(C)Cc2ccccc2)C1` [Example 139, ((1s,3s)-3-(benzyl(methyl)amino)cyclobutyl)(3,3,5-trimethyl-2,3-dihydro-1H-pyrrolo[3,2-b]pyridin-1-yl)methanone], the Ki at human σ1 receptor and at human σ2/TMEM97 receptor was 0.1 to 0.5 µM throughout.

For the compound `Cc1ccc2c(n1)C(C)(C)CN2C(=O)[C@H]1CC[C@H](N(C)Cc2ccccc2)CC1` [Example 140, ((1r,4r)-4-(benzyl(methyl)amino)cyclohexyl)(3,3,5-trimethyl-2,3-dihydro-1H-pyrrolo[3,2-b]pyridin-1-yl)methanone], the Ki at human σ1 receptor and at human σ2/TMEM97 receptor was less than 0.1 µM in each case.

For the compound `CC1(C)CN(C(=O)N2CCC3(CCN(Cc4ccccc4F)CC3)C2)c2cccnc21` [Example 141, (3,3-dimethyl-2,3-dihydro-1H-pyrrolo[3,2-b]pyridin-1-yl)(8-(2-fluorobenzyl)-2,8-diazaspiro[4.5]decan-2-yl)methanone], the Ki at human σ1 receptor and at human σ2/TMEM97 receptor was less than 0.1 µM in each case.

Consider `CC1(C)CN(C(=O)N2CCC3(CCN(Cc4ccc(C#N)c(F)c4)CC3)C2)c2cccnc21` [Example 142, 4-((2-(3,3-dimethyl-2,3-dihydro-1H-pyrrolo[3,2-b]pyridine-1-carbonyl)-2,8-diazaspiro[4.5]decan-8-yl)methyl)-2-fluorobenzonitrile], for which the Ki at human σ1 receptor and on human σ2/TMEM97 receptor was less than 0.1 µM throughout.

With `CC1(C)CN(C(=O)N2CCC3(CCN(Cc4ccc(F)c(C#N)c4)CC3)C2)c2cccnc21` [Example 143, 5-((2-(3,3-dimethyl-2,3-dihydro-1H-pyrrolo[3,2-b]pyridine-1-carbonyl)-2,8-diazaspiro[4.5]decan-8-yl)methyl)-2-fluorobenzonitrile], the Ki was 0.1 to 0.5 µM at human σ1 receptor and less than 0.1 µM at human σ2/TMEM97 receptor.
